Here are results for 15 compounds from ChEMBL document CHEMBL1145159 (J Med Chem, 2005).

The target in test [1] is T1, Neuronal acetylcholine receptor; alpha4/beta2 (Homo sapiens, UniProt P17787+P43681). The test is described as follows: Effective concentration against Nicotinic acetylcholine receptor alpha4-beta2. The test is classed as protein-complex assay.
The target in test [2] is T1, Neuronal acetylcholine receptor; alpha4/beta2. The test is described as follows: Maximal response against Nicotinic acetylcholine receptor alpha4-beta2. The test is classed as protein-complex assay.
For test [3], the target named is T2, Neuronal acetylcholine receptor; alpha3/beta2 (Homo sapiens, UniProt P17787+P32297). The test is described as follows: Effective concentration against Nicotinic acetylcholine receptor alpha3-beta2. The test is classed as protein-complex assay.
T2 sequence (P17787 whole entry): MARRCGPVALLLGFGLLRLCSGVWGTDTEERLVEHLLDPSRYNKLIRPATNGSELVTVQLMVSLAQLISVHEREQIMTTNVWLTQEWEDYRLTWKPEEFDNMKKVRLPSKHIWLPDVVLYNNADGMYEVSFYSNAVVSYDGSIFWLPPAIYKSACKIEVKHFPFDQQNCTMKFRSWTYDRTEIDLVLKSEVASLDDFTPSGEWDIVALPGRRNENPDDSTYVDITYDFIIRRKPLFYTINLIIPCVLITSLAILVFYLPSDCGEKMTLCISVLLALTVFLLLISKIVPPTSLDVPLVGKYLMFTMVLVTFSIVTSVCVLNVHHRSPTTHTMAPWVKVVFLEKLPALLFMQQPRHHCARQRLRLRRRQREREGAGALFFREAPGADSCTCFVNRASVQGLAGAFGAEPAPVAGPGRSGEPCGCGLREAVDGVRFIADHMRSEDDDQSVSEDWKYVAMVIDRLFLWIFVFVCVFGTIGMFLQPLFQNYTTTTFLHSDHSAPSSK
T2 sequence (P32297 whole entry): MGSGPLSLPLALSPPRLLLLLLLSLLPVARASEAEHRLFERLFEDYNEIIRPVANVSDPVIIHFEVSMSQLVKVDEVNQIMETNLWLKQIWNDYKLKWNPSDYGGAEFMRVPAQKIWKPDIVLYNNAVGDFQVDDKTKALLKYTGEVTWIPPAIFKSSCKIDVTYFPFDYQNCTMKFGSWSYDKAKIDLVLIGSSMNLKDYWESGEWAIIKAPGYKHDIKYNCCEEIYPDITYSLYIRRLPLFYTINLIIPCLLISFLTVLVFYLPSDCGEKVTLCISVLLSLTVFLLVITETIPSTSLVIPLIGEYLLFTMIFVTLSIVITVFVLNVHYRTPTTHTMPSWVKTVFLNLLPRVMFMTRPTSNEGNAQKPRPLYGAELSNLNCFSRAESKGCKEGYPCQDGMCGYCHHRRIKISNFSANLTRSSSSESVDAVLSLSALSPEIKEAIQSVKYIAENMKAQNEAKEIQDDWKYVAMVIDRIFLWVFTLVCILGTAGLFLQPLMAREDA
Test [4] concerns the target T3, Neuronal acetylcholine receptor subunit alpha-7 (Homo sapiens, UniProt P36544). The test is described as follows: Effective concentration against Nicotinic acetylcholine receptor alpha 7.
The target in test [5] is T1, Neuronal acetylcholine receptor; alpha4/beta2. Kind of test: (§1) Inhibitory concentration against Nicotinic acetylcholine receptor alpha4-beta2. The test is classed as protein-complex assay.
The target of test [6] is T3, Neuronal acetylcholine receptor subunit alpha-7. The test is described as follows: Inhibitory concentration against Nicotinic acetylcholine receptor alpha 7.
Test [7] deals with T2, Neuronal acetylcholine receptor; alpha3/beta2. Kind of test: Inhibitory concentration against Nicotinic acetylcholine receptor alpha3-beta2. The test is classed as protein-complex assay.
Test [8] deals with Neuronal acetylcholine receptor subunit alpha-7 (Rattus norvegicus) (UniProt Q05941). The test is described as follows: Maximal response against Nicotinic acetylcholine receptor alpha 7.
Neuronal acetylcholine receptor subunit alpha-7 (Rattus norvegicus), sequence (Q05941 whole entry): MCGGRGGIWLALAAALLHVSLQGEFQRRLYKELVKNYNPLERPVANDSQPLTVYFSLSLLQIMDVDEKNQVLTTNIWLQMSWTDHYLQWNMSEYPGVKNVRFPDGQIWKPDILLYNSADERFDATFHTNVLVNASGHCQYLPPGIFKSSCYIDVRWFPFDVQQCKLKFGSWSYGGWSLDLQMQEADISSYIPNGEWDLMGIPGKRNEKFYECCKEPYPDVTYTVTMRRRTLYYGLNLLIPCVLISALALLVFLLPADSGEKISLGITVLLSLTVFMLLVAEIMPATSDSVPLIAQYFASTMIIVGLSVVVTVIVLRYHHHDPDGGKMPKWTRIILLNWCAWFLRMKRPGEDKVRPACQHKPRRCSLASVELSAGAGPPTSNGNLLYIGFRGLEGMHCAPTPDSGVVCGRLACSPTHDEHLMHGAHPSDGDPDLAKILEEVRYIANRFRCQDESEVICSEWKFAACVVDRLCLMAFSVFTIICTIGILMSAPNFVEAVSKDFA
Test [9] has as its target T4, Neuronal acetylcholine receptor; alpha3/beta4 (Homo sapiens, UniProt P30926+P32297). Kind of test: Maximal response against Nicotinic acetylcholine receptor alpha3-beta4. The test is classed as protein-complex assay.
Test [10] addresses T5, Neuronal acetylcholine receptor; alpha4/beta4 (Homo sapiens, UniProt P30926+P43681). Kind of test: Maximal response against Nicotinic acetylcholine receptor alpha4-beta4. The test is classed as protein-complex assay.
The target of test [11] is T6, Neuronal acetylcholine receptor; alpha2/beta4 (Homo sapiens, UniProt P30926+Q15822). Kind of test: Maximal response against Nicotinic acetylcholine receptor alpha2-beta4. The test is classed as protein-complex assay.
T6 sequence (P30926 whole entry): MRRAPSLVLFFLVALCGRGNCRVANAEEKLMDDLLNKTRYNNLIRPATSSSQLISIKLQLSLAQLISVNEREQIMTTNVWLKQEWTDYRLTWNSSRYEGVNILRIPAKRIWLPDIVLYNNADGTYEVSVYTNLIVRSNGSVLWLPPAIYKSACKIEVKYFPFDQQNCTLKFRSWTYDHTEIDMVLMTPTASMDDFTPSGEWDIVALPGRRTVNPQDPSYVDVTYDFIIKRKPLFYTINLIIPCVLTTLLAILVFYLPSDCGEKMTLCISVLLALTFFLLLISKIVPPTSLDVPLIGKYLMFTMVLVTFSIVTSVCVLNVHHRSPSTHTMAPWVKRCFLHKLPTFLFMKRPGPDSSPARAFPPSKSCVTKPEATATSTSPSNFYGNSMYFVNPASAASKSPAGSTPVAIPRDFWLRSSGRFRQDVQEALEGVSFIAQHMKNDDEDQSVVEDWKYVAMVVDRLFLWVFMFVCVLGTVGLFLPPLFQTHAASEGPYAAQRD
T6 sequence (Q15822 whole entry): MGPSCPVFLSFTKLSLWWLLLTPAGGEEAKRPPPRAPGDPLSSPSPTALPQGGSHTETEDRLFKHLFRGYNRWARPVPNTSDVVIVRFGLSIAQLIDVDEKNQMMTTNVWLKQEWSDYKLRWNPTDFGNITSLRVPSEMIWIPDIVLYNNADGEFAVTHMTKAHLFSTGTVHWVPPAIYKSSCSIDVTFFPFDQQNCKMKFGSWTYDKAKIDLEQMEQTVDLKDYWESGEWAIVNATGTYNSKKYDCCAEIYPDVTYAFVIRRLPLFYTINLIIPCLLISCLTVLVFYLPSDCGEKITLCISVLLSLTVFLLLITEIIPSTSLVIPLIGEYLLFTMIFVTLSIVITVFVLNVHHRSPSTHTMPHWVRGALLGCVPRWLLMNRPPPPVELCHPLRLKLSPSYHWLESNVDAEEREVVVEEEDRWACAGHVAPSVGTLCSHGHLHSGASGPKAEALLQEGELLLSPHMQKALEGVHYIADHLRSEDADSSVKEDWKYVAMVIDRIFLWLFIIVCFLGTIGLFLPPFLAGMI
In test [12] the target is T2, Neuronal acetylcholine receptor; alpha3/beta2. Kind of test: Maximal response against Nicotinic acetylcholine receptor alpha3-beta2. The test is classed as protein-complex assay.
In test [13] the target is T1, Neuronal acetylcholine receptor; alpha4/beta2. The description is as §1. The test is classed as protein-complex assay. The source holds these as a separate data set.
The target in test [14] is T4, Neuronal acetylcholine receptor; alpha3/beta4. The test is described as follows: Effective concentration against Nicotinic acetylcholine receptor alpha3-beta4. The test is classed as protein-complex assay.
Test [15] concerns the target T5, Neuronal acetylcholine receptor; alpha4/beta4. The test is described as follows: Effective concentration against Nicotinic acetylcholine receptor alpha4-beta4. The test is classed as protein-complex assay.
A short description of test [16]: Effective concentration against Nicotinic acetylcholine receptor alpha3-beta4 expressed in xenopus oocytes. The test is classed as cell-based. The settings on record: oocyte.
Test [17] is described as follows: Effective concentration against Nicotinic acetylcholine receptor alpha4-beta2 expressed in xenopus oocytes. The test is classed as cell-based. Particulars: oocyte.
In test [18] the target is T2, Neuronal acetylcholine receptor; alpha3/beta2. Kind of test: Effective concentration against Nicotinic acetylcholine receptor alpha3-beta2 expressed in xenopus oocytes. The test is classed as cell-based, Oocyte.
The target of test [19] is T6, Neuronal acetylcholine receptor; alpha2/beta4. Kind of test: Inhibitory concentration against Nicotinic acetylcholine receptor alpha2-beta4. The test is classed as protein-complex assay.
Test [20] can be described thus: Effective concentration against Nicotinic acetylcholine receptor alpha4-beta4 expressed in xenopus oocytes. The test is classed as cell-based. Particulars: oocyte.
Test [21] concerns the target T2, Neuronal acetylcholine receptor; alpha3/beta2. Kind of test: Maximal response against Nicotinic acetylcholine receptor alpha3-beta2 expressed in HEK293 cells. The test is classed as cell-based.
Test [22] in a line: Effective concentration against Nicotinic acetylcholine receptor alpha2-beta4 expressed in xenopus oocytes. The test is classed as cell-based. Particulars: oocyte.
In test [23] the target is T1, Neuronal acetylcholine receptor; alpha4/beta2. The test is described as follows: Maximal response against Nicotinic acetylcholine receptor alpha4-beta2 expressed in HEK293 cells. The test is classed as cell-based.
The target in test [24] is T4, Neuronal acetylcholine receptor; alpha3/beta4. Kind of test: Inhibitory concentration against Nicotinic acetylcholine receptor alpha3-beta4. The test is classed as protein-complex assay.

Where “and” joins values, the source holds several entries; their conditions need not be identical. Equal values may be shown once.

By EC50 is commonly meant the concentration that produces a half-maximal response. Higher therefore signals a need for much substance. Broadly, the IC50 is the point on the concentration scale where inhibition reaches its midpoint.

T4 sequence (P30926 whole entry): as the sequence (P30926 whole entry) above
T4 sequence (P32297 whole entry): as the sequence (P32297 whole entry) above
T5 sequence (P30926 whole entry): as the sequence (P30926 whole entry) above
T5 sequence (P43681 whole entry): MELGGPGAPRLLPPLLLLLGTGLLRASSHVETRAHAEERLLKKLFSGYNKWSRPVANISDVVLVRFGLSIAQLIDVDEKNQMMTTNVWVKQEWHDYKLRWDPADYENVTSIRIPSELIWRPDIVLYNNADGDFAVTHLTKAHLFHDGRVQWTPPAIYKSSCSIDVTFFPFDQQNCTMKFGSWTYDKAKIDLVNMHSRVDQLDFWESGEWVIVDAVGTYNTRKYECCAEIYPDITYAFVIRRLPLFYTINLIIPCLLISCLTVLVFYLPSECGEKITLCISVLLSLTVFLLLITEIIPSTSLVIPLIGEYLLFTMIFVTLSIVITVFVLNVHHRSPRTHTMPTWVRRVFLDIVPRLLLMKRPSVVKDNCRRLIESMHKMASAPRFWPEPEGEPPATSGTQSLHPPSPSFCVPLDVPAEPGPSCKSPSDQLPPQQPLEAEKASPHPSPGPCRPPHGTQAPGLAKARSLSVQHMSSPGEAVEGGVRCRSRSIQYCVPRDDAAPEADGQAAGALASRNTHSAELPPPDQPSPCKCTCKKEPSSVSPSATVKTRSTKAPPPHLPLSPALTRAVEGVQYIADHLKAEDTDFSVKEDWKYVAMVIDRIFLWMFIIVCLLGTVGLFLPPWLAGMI
T3 sequence (P36544 whole entry): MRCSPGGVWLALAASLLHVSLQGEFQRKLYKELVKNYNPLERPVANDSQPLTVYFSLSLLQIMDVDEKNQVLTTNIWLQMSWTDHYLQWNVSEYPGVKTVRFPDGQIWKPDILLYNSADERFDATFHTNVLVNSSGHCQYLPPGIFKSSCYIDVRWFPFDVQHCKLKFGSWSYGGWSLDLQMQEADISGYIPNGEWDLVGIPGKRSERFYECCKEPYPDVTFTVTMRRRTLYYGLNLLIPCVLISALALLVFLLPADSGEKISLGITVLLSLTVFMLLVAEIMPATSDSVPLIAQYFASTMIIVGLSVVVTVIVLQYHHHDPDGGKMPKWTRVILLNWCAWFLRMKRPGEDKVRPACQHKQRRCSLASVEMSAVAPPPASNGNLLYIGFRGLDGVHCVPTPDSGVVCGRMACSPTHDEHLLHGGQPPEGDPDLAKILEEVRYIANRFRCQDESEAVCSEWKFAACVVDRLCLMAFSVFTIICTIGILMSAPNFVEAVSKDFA
T1 sequence (P17787 whole entry): as the sequence (P17787 whole entry) above
T1 sequence (P43681 whole entry): as the sequence (P43681 whole entry) above

Consider `c1cnc2c(c1)O[C@H]1CCN3CC[C@@]1(C2)C3` [DIANICLINE], for which the EC50 in test [1] and in test [3] was over 100 µM in each case. Also, the Rmax in [2] stood at 19%.

For `CN1C2CC[C@@H]1CC2c1ccnnc1` (stereo not given in full), the results for the concentration for a half-maximal effect (EC50) in test [1], in test [4] and in [3] were 0.32 µM, 25 µM and 0.013 µM, respectively.

Regarding `CC[C@H](C)[C@H](NC(=O)[C@H](Cc1c[nH]cn1)NC(=O)[C@H](CCC(N)=O)NC(=O)[C@H](CC(N)=O)NC(=O)[C@H](CC(N)=O)NC(=O)CNC(=O)[C@H](C)NC(=O)[C@H](CS)NC(=O)[C@H](C)NC(=O)[C@@H]1CCCN1C(=O)[C@H](Cc1c[nH]cn1)NC(=O)[C@H](CO)NC(=O)[C@H](CS)NC(=O)[C@H](CS)NC(=O)CN)C(=O)N[C@@H](CS)C(N)=O`, the IC50 in test [5], in [6] and in test [7] was 0.0011 µM in each case.

Regarding `Clc1ccc(C2=CCC[C@H]3CCC2N3)cn1`, the Rmax in [8] was 55%; in test [9] it was 50%; in test [10], 70%; in [11], 50%; in [2], 15%; in test [12], 50%.

Regarding `CC[N+](CC)(CC)CCOc1ccc(/C=C/c2ccccc2)cc1`, the Concentration in [13] was found to be 3.2 µM.

`COc1ccc(/C=C2\CCCN=C2c2cccnc2)c(OC)c1` [GTS-21]: the Rmax is 23% and 28% in test [8]; 0% in [2]. The 50% effective concentration (EC50) in test [1], in [14] and in [15] was over 10 µM in each case.

Regarding `O=C1NCC2(CN3CCC2CC3)O1` (stereo not given), the Rmax in test [8] was found to be 78%. Further, the concentration for a half-maximal effect (EC50) is over 1000 µM in test [16], over 2000 µM in test [17] and over 1000 µM in test [18].

Consider `O=C(NC1CN2CCC1CC2)c1ccc(-c2ccsc2)s1` (stereo not given), for which the Rmax in [8] came out at 100%. Further, the EC50 in test [1], in test [14] and in test [15] was over 10 µM in each case.

Turning to `CNC1(C)C2CCC(C2)C1(C)C` (stereo not given) [MECAMYLAMINE], the IC50 in test [19] is 3.1 µM and 16 µM; in test [6] it was 12.3 µM; in test [7], 0.28 µM. The Concentration in test [13] is 0.78 µM.

Regarding `O=c1cccc2n1C[C@@H]1CNC[C@H]2C1` [CYTISINICLINE], the concentration giving a half-maximal response (EC50) in [20] came to 0.9 µM; in test [16] it was 72 µM; in [22], 39 µM; in [17] it was 2.7 µM; in test [18], 67 µM. In addition, the Rmax is 90% and 105% in test [8]; 58% in test [11]; 11% and 2% in test [2]; 23 µM in test [12]; 55% in [21]; 42% in test [23].

For the compound `CN1CCC[C@H]1CCSc1ccc(O)cc1`, the Rmax turned out to be 71% in test [9]; 62% in [10]; 102% in [11]; 13% in test [2]; 9% in test [12]. In addition, the EC50 in test [4] is over 10 µM.

`CCCC1CCCNC(c2cccnc2)C1` (stereo not given): the Rmax in test [9] came out at 2%; in [2], 3%; in [12] it was 5%. This compound also gave a 50% effective concentration (EC50) in [4] of 44 µM.

On to `CCN1C[C@]2(COC(=O)c3ccccc3N3C(=O)C[C@H](C)C3=O)CC[C@H](OC)[C@@]34[C@@H]5C[C@H]6[C@H](OC)[C@@H]5[C@](O)(C[C@@H]6OC)[C@](O)([C@@H](OC)[C@H]23)[C@@H]14` [METHYLLYCACONITINE], for which the IC50 in test [19], in [24], in test [6] and in [7] was over 1 µM each time.

In turn, `CN1CCC[C@H]1COc1cnc(Cl)c(-c2ccc(Cl)cc2)c1` gave a Concentration in test [13] of 0.96 µM. The concentration for half-maximal inhibition (IC50) in [24] came to 9.2 µM; in [6] it was 8.5 µM.

`O=C(NC1CN2CCC1CC2)c1ccc(-c2ccccn2)s1` (stereo not given) had an Rmax in test [8] of 100%. Also, the concentration for a half-maximal effect (EC50) in [1], in test [14] and in test [15] was over 10 µM each time.
